Data from patent US8258186B2, “Pharmaceutical for oral delivery comprising MGBG” (Pathologica, LLC, priority 2009, dated 2012).

Tests used:
[1] = Multi-species allometric scaling, predicted pharmacokinetic parameters in humans; settings: predicted human, based on Mouse, Dog, Rhesus
Text: Multi-species allometric scaling based on pharmacokinetic parameters disclosed in Tables 2 and 3 was employed to calculate predicted pharmacokinetic parameters in humans according to methods known in the art. See, e.g., Ings R M, “Interspecies scaling and comparisons in drug development and toxicokinetics,” Xenobiotica, 1990 November; 20(11):1201-31 and Khor, S P et al., “Dihydropyrimidine dehydrogenase inactivation and 5-fluorouracil pharmacokinetics: allometric scaling of animal data, pharmacokinetics and toxicodynamics of 5-fluorouracil in humans,” Cancer Chemother Pharmacol (1997) 39(3): 833-38. Expected values are given below in Tables 6 and 7.

[2] = tested on: carrageenan air pouch inflammation; assay: Carrageenan air pouch model; type: in vivo, Swiss Webster mice; settings: mice, MGBG PO BID 3, 10, 30 mg/kg/dose
Text: Injection of air subcutaneously will induce the formation of a connective tissue cavity lined with cells that resemble and function like a synovial lining. This method is commonly known as the Air Pouch Model and is a useful animal model of inflammation that can be generated in a relatively short period of time. The air pouch may be created by subcutaneous (SQ) injection of a volume of sterile air in the dorsal neck region. The model may be used to test the efficacy and potency of compounds such as polyamine analogues and polyamine biosynthesis inhibitors such as MGBG in reducing various cellular and biochemical indicators of inflammation when administered as an oral (PO) gavage administration.
Animals, compounds, and dosing. Healthy male Swiss Webster mice of 7-9 weeks of age and at least 30 g in weight were used. Animals were divided into six groups of thirty. Each group was administered 6 mL of air subcutaneously as described below on days 4 and 7. […] Tolerance of test compound dosing was monitored in mice by daily visual inspections of physical and behavioral changes, such as examined changes in body posture, hair coat, activity, excreta, etc., and dosing reevaluated upon negative findings. […]
Exudate, Plasma, and Histological Collection. The systemic exposure of the test article was evaluated as follows. Plasma samples were prepared and evaluated as follows. […]

in vivo = assay: in vivo; design: species or system beagle dogs; settings: male, beagle, dog
Method: Two groups of three male beagle dogs weighing 9.0-10.7 kg and aged 8-30 months were fasted overnight before being administered the test article, MGBG, as either a single bolus intravenous dose of 1 mg/kg (Group 1) or as a single oral gavage dose of 10 mg/kg (Group 2). Dose formulation analysis verified administered dose solutions as within 17% of targeted concentrations of 1 and 10 mg/kg for Groups 1 and 2, respectively.
Blood samples (approximately 2.0 mL) were collected for plasma MGBG concentration measurement from all intravenously dosed animals prior to dosing and at approximately T=0.083 (5 min), 0.25 (15 min), 0.5 (30 min), 1, 2, 4, 8, and 24 hours after dosing. A similar procedure was used with orally dosed animals was used, except that collection took place at T=1, 2, 4, 8, 12, 24, and 36 hours after dosing. The samples were centrifuged under refrigerated conditions following completion of sample collection at each interval. The resulting plasma was separated and stored frozen at approximately −70° C. until analysis.

## CC(/C=N/NC(=N)N)=N\NC(=N)N [MGBG, 1,1′[methylethanediylidene]dinitrilodiguanidine]
[1]; IV
  VSS: 9.1 L/kg
  t1/2: 13.3 h
[1]; IV, Rat
  t1/2: 13.4 h
[1]; ORAL
  CL: 20.9 mL/min/kg
  t1/2: 23.0 h
[1]; ORAL, Rat
  t1/2: 23.3 h
[2]
  efficacy, changes relative to control indicative of reduced inflammation: efficacious
In vivo; iv, 1 mg/kg
  AUC: 1410 ng·h/mL
  Clobs: 13.7 mL/min/kg
  Cmax: 1180 ng/mL
  Tmax: 4.98 min
  VSSobs: 14.6 L/kg
  half-life: 948 min
In vivo; po, 10 mg/kg
  AUC: 6290 ng·h/mL
  Clobs: 8.29 mL/min/kg
  Cmax: 616 ng/mL
  Tmax: 60 min
  bioavailability: 49%
  half-life: 930 min
